# Reference: US20040110802A1, “Antibacterial benzoic acid derivatives” (priority 2002, published 2004)
# Read-outs that look alike come from different tables or passages of the source.
# Tested on: SAUR 9218
# Experiment: MIC Test Method, standard agar dilution
# Assay type: cell-based
# Settings: read-out: SAUR 9218 MIC
# Procedure, shortened: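 MIC (μg/ml) was read as the lowest drug level without visible growth of SAUR 9218 after overnight incubation at 35 °C. Inocula of about 10^4 to 10^5 cells per spot were applied to Mueller Hinton agar containing 2-fold serial compound dilutions.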
# [1] = agar dilution, Mueller Hinton agar, incubated overnight at 35° C., lowest concentration that inhibits visible growth
SMILES,MIC [1] [µg/mL],MIC [µg/mL]
COc1ccc2oc(C(=O)Nc3ccc(C#N)cc3C(=O)O)cc2c1,2,–
CCCC(=O)Nc1ccc2cc(C(=O)Nc3ccc(C#N)cc3C(=O)O)n(C)c2c1,1,–
N#Cc1ccc(NC(=O)c2coc(-c3ccccc3)n2)c(C(=O)O)c1,64,–
N#Cc1ccc(NC(=O)c2cc(OCc3ccccc3)ccn2)c(C(=O)O)c1,0.5,–
N#Cc1ccc(NC(=O)c2cc3cccc(NC(=O)Cc4csc5ccccc45)c3[nH]2)c(C(=O)O)c1,0.25,–
O=C(Nc1ccc(Br)cc1C(=O)O)c1cnc(CC[C@H](O)CO)cn1,64,–
N#Cc1ccc(NC(=O)c2nsc(Cl)c2Cl)c(C(=O)O)c1,4,–
Cn1c(C(=O)Nc2ccc(C#N)cc2C(=O)O)cc2cccc(OCc3cccnc3)c21,0.125,–
Cn1c(C(=O)Nc2ccc(C#N)cc2C(=O)O)cc2cccc(OC[C@H](O)CO)c21,0.5,–
N#Cc1ccc(NC(=O)c2nnc(SCc3ccccc3)s2)c(C(=O)O)c1,0.125,–
COCCOCCCSc1cnc(C(=O)Nc2ccc(Cl)cc2C(=O)O)cn1,2,–
N#Cc1ccc(/C=C/c2noc3ccccc23)c(C(=O)O)c1,64,–
O=C(Nc1ccc(Br)cc1C(=O)O)c1cc(OCc2ccccc2)ccn1,4,–
Cn1c(C(=O)Nc2ccc(C#N)cc2C(=O)O)cc2ccc(OCC3CCC3)cc21,0.125,–
Cc1c(S(=O)(=O)N2CC3CC2CN3Cc2ccccc2)csc1C(=O)Nc1ccc(Br)cc1C(=O)O (stereo not shown),> 128,–
N#Cc1ccc(NC(=O)c2cnc(-c3ccccc3C(F)(F)F)cn2)c(C(=O)O)c1,32,–
NS(=O)(=O)c1ccc2onc(C(=O)Nc3ccc(Br)cc3C(=O)O)c2c1,0.25,–
N#Cc1ccc(NC(=O)c2cc3cccc(N4C(=O)c5ccccc5C4=O)c3[nH]2)c(C(=O)O)c1,8,–
Cc1sc(C(=O)Nc2ccc(Br)cc2C(=O)O)cc1S(=O)(=O)N(C)c1ccc(Cl)cc1,2,–
COc1ccc(-c2cc(C(=O)Nc3ccc(Br)cc3C(=O)O)no2)cc1,0.5,–
Cc1c(S(=O)(=O)Nc2ccc(F)c(Cl)c2)csc1C(=O)Nc1ccc(Br)cc1C(=O)O,64,–
COCc1onc(C(=O)Nc2ccc(C#N)cc2C(=O)O)c1COC,16,–
Cc1sc(C(=O)Nc2ccc(C#N)cc2C(=O)O)cc1S(=O)(=O)N1CCN(c2ccccn2)CC1,32,–
N#Cc1ccc(NC(=O)c2cnc(SCc3ccccc3)s2)c(C(=O)O)c1,1,–
N#Cc1ccc(NC(=O)c2cc(CSc3ccncc3)on2)c(C(=O)O)c1,1,–

SMILES,MIC [1] [µg/mL],MIC [µg/mL]
CCCCCCCCSc1cnc(C(=O)Nc2ccc(C#N)cc2C(=O)O)cn1,0.5,–
CN(c1ccc(Cl)cc1)S(=O)(=O)c1ccc(C(=O)Nc2ccc(Br)cc2C(=O)O)o1,16,–
N#Cc1ccc(NC(=O)c2cc(CNCc3ccncc3)on2)c(C(=O)O)c1.O=C(O)C(F)(F)F,8,–
Cc1ccc(-c2cccc3cc(C(=O)Nc4ccc(C#N)cc4C(=O)O)n(C)c23)s1,0.5,–
O=C(O)c1cc(Br)ccc1NC(=O)c1cccnc1Cl,> 128,–
O=C(Nc1ccc(Br)cc1C(=O)O)c1ccccn1,> 128,–
N#Cc1ccc(NC(=O)c2cc3cc(-c4ccccc4)oc3cn2)c(C(=O)O)c1,8,–
Cn1c(C(=O)Nc2ccc(C#N)cc2C(=O)O)cc2cccc(NC(=O)CF)c21,–,1
CC(=O)Nc1cccc(-c2cccc3cc(C(=O)Nc4ccc(C#N)cc4C(=O)O)n(C)c23)c1,0.5,–
N#Cc1ccc(NC(=O)c2cc3cccc(NC(=O)Cc4ccc(Cl)cc4Cl)c3[nH]2)c(C(=O)O)c1,0.25,–
C[C@@H](CBr)COc1ccccc1-c1cc(C(=O)Nc2ccc(C#N)cc2C(=O)O)no1,0.5,–
Cc1sc(C(=O)Nc2ccc(C#N)cc2C(=O)O)cc1S(=O)(=O)N1CCN(c2cccc(C(F)(F)F)c2)CC1,32,–
O=C(O)c1cc(Br)ccc1NC(=O)c1ccnc2ccccc12,> 128,–
N#Cc1ccc(NC(=O)c2cc3cccc(NC(=O)C4CCCN4)c3[nH]2)c(C(=O)O)c1 (stereo not shown),> 128,–
Cc1sc(C(=O)Nc2ccc(Br)cc2C(=O)O)cc1S(=O)(=O)N1CCN(c2cccc(C(F)(F)F)c2)CC1,32,–
Cn1c(C(=O)Nc2ccc(Br)cc2C(=O)O)cc2ccccc21,0.5,–
CCCCNCC(O)COc1cccc2cc(C(=O)Nc3ccc(C#N)cc3C(=O)O)n(C)c12.Cl (stereo not shown),0.5,–
Cc1sc(C(=O)Nc2ccc(C#N)cc2C(=O)O)cc1S(=O)(=O)N1CCN(c2ccccc2)CC1,8,–
CCCCN(CC#N)S(=O)(=O)c1cc(C(=O)Nc2ccc(C#N)cc2C(=O)O)sc1C,64,–
N#Cc1ccc(NC(=O)c2cc3ccc(Cl)cc3[nH]2)c(C(=O)O)c1,2,–
Cc1sc(C(=O)Nc2ccc(Br)cc2C(=O)O)cc1S(=O)(=O)NC1CCN(Cc2ccccc2)CC1,> 128,–
CSc1ncc(Cl)c(C(=O)Nc2ccc(Br)cc2C(=O)O)n1,> 128,–
COCC(OC)C(Cc1cnc(C(=O)Nc2ccc(Br)cc2C(=O)O)cn1)OC (stereo not shown),> 128,–
N#Cc1ccc(NC(=O)c2csc(-c3cccnc3)n2)c(C(=O)O)c1,> 128,–
